Results reported in PubChem BioAssay AID2060618 (Molecular Pharmacology Branch, DTP, NCI, 2025).

Tested on: 454973-116-R2-J3-PDC spheroids, percent test/control viability
Assay: Anticancer human tumor 454973-116-R2-J3-PDC patient-derived pancreatic carcinoma cell line growth inhibition [CLK]
Settings: spheroids with HUVEC and MSC; for IC50: curve of first compound; for viability, T/C: stronger effect = lower value; active = viability on the fitted dose curve at most 10% of control; inactive = the rest
Source text: A high-throughput screen of multi-cell type tumor spheroids was designed to identify active combinations of […] and targeted small molecules. Complex spheroids include a stromal component modeled by human endothelial cells (HUVEC) and fibroblasts modeled by human mesenchymal stem cells (MSCs). The concentration ranges selected for each drug and investigational agent were based upon clinically achievable concentrations if the clinical Cmax of the agent was known.
Compounds. The drugs and investigational agents: cirtuvivint (SM08502; NSC835563), CC-671 (NSC850746), vemurafenib (NSC761431), tapotoclax (NSC804041), sotorasib (NSC818433), adagrasib (NSC831453), MRTX-1133 (NSC836407), BAY2416964 (NSC825713), copanlisib (NSC816437), inavolisib (NSC800729), abemaciclib (NSC768073), osimertinib (NSC779217), entinostat (NSC756642), eltanexor (KPT-8602, NSC794443), venetoclax (NSC766270), ceralasertib (NSC777638), bortezomib (NSC756655), olaparib (NSC753686), talazoparib (NSC767125), alisertib (NSC759677), peposertib (NSC802822), gemcitabine (NSC613327), 5-fluorouracil (NSC19893), SN-38 (NSC673596), oxaliplatin (NSC266046), paclitaxel (NSC125973), and doxorubicin (NSC123127), were obtained from the National Cancer Institute (NCI) Developmental Therapeutics Program Chemical Repository. The FDA-approved anticancer drug set is available from the Developmental Therapeutics Program at https://dtp.cancer.gov/organization/dscb/obtaining/available plates.htm. […] The stock solutions were prepared in dimethyl sulfoxide (DMSO, Sigma-Aldrich, St. Louis, MO, cat. D2650), except for the platinum complexes which were prepared in saline (Quality Biological, Gaithersburg, MD, cat. 114-055-101), at 800-fold the tested concentration and stored at -70 degrees C prior to their use. All drugs and investigational agents were tested over a range starting from a high concentration at or near the clinical Cmax and decreasing in half-log increments. If the clinical Cmax for an agent had not been determined, the highest concentration tested was 10 microM.
Cell Culture. All cells were maintained in an incubator at 37 degrees C and 5% CO2 with 95% humidity. The PDC lines were cultured according to standard operating procedures established by the NCI PDMR. Briefly, all PDCs were thawed and cultured in Matrigel-coated flasks prepared with a working solution of 1X Ham's F-12 nutrient mix, without supplementation (Invitrogen, Waltham, MA, cat. 11765054), 100 U/mL penicillin-streptomycin (Invitrogen, cat. 15140122), and 2.5% Matrigel (Corning Inc., Corning, NY, cat. 354248) for the first three passages. The 947758-054-R-J2-PDC line was cultured in 6B/Colon 1A media, which includes advanced DMEM/F-12 (Thermo Fisher Scientific, cat. 12634028), 10 mM HEPES (Thermo Fisher Scientific, cat. 15630080), 1X GlutaMAX supplement (Thermo Fisher Scientific, cat. 35050061), 0.1 mg/mL primocin (InvivoGen, cat. ant-pm-2), 10% defined fetal bovine serum, heat inactivated (HyClone Laboratories Inc., cat. SH30070.03HI), 1.25 mM N-Acetyl-L-cysteine (Sigma-Aldrich, cat. A9165), 10 mM nicotinamide (Sigma-Aldrich, cat. N0636), 1X B-27 supplement (Thermo Fisher Scientific, cat. 17504044), 1X N-2 supplement (Thermo Fisher Scientific, cat. 17502048), and 10 microM Y-27632 dihydrochloride (Tocris Bioscience, cat. 1254). The 876862-298-R-J1-PDC was cultured in 6E media, which includes all 6B/Colon 1A media components plus 50% L-WRN conditioned media (ATCC, cat. CRL-3276), 50 ng/mL recombinant human EGF recombinant protein (hEGF; Thermo Fisher Scientific, cat. PHG0311), 10 ng/mL recombinant human fibroblast growth factor 10 (hGFG-10; PeproTech, cat. 100-26), 1 ng/mL recombinant human fibroblast growth factor 2 (hFGF-2; PeproTech, cat. 100-18B), and 1 µM prostaglandin E2 (PGE2; Tocris, cat. 2296). The 227483-062-R1-J1-PDC line was cultured in Panc media, containing all 6E components except hFGF-2, with the addition of 500 nM SB-431542 (Selleckchem, cat. S1067) and 10 nM gastrin (Tocris, cat. 3006). […]

[1] = second compound 0.0316 µM, first compound 0.0316 µM
[2] = second compound 0.0316 µM, first compound 0.1 µM
[3] = second compound 0.0316 µM, first compound 0.316 µM
[4] = second compound 0.0316 µM, first compound 1 µM
[5] = second compound 0.0316 µM, first compound 3.16 µM
[6] = second compound 0.0316 µM, first compound 10 µM
[7] = second compound 0.1 µM, first compound 0.0316 µM
[8] = second compound 0.1 µM, first compound 0.1 µM
[9] = second compound 0.1 µM, first compound 0.316 µM
[10] = second compound 0.1 µM, first compound 1 µM
[11] = second compound 0.1 µM, first compound 3.16 µM
[12] = second compound 0.1 µM, first compound 10 µM
[13] = second compound 0.316 µM, first compound 0.0316 µM
[14] = second compound 0.316 µM, first compound 0.1 µM
[15] = second compound 0.316 µM, first compound 0.316 µM
[16] = second compound 0.316 µM, first compound 1 µM
[17] = second compound 0.316 µM, first compound 3.16 µM
[18] = second compound 0.316 µM, first compound 10 µM
[19] = second compound 1 µM, first compound 0.0316 µM
[20] = second compound 1 µM, first compound 0.1 µM
[21] = second compound 1 µM, first compound 0.316 µM
[22] = second compound 1 µM, first compound 1 µM
[23] = second compound 1 µM, first compound 3.16 µM
[24] = second compound 1 µM, first compound 10 µM
[25] = second compound 3.16 µM, first compound 0.0316 µM
[26] = second compound 3.16 µM, first compound 0.1 µM
[27] = second compound 3.16 µM, first compound 0.316 µM
[28] = second compound 3.16 µM, first compound 1 µM
[29] = second compound 3.16 µM, first compound 3.16 µM
[30] = second compound 3.16 µM, first compound 10 µM
[31] = second compound 10 µM, first compound 0.0316 µM
[32] = second compound 10 µM, first compound 0.1 µM
[33] = second compound 10 µM, first compound 0.316 µM
[34] = second compound 10 µM, first compound 1 µM
[35] = second compound 10 µM, first compound 3.16 µM
[36] = second compound 10 µM, first compound 10 µM
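Note: spheroids exposed to compounds for 7 days before readout.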

C=CC(=O)N1CCN(c2nc(=O)n(-c3c(C)ccnc3C(C)C)c3nc(-c4c(O)cccc4F)c(F)cc23)C(C)C1 (stereo unspecified) + CN1CCN(c2cc(C(=O)Nc3cc4cc(-c5cnn(C)c5)ccc4cn3)ccn2)CC1
> 10000 nM: IC50 (second compound 0.0316 µM) | IC50 (second compound 0.1 µM)
active: viability, T/C [13] 2.25% | viability, T/C [14] 2.21% | viability, T/C [15] 6.18% | viability, T/C [16] 2.73% | viability, T/C [17] 4.43% | viability, T/C [18] 2.46% | viability, T/C [19] 0.13% | viability, T/C [20] 1.49% | viability, T/C [21] 1.16% | viability, T/C [22] 0.14% | viability, T/C [23] 0.16% | viability, T/C [24] 1.96% | viability, T/C [25] 1.3% | viability, T/C [26] 0.21% | viability, T/C [27] 4.08% | viability, T/C [28] 0.17% | viability, T/C [29] 4.42% | viability, T/C [30] 1.08% | viability, T/C [31] 1.96% | viability, T/C [32] 0.63% | viability, T/C [33] 0.4% | viability, T/C [34] 0.69% | viability, T/C [35] 0.61% | viability, T/C [36] 0.21%
inactive: viability, T/C [1] 97% | viability, T/C [2] 99.5% | viability, T/C [3] 103% | viability, T/C [4] 110% | viability, T/C [5] 110% | viability, T/C [6] 119% | viability, T/C [7] 87.6% | viability, T/C [8] 88.4% | viability, T/C [9] 92.6% | viability, T/C [10] 87.1% | viability, T/C [11] 98.4% | viability, T/C [12] 54.7%
< 31.6 nM: IC50 (second compound 0.316 µM) | IC50 (second compound 1 µM) | IC50 (second compound 3.16 µM) | IC50 (second compound 10 µM)

CCCS(=O)(=O)Nc1ccc(F)c(C(=O)c2c[nH]c3ncc(-c4ccc(Cl)cc4)cc23)c1F + CN1CCN(c2cc(C(=O)Nc3cc4cc(-c5cnn(C)c5)ccc4cn3)ccn2)CC1
inactive: viability, T/C [1] 79.2% | viability, T/C [2] 101% | viability, T/C [3] 95.7% | viability, T/C [4] 105% | viability, T/C [5] 107% | viability, T/C [6] 29.3% | viability, T/C [7] 73.9% | viability, T/C [8] 80.6% | viability, T/C [9] 100% | viability, T/C [10] 96.7% | viability, T/C [11] 83.7% | viability, T/C [12] 13.2%
7050 nM: IC50 (second compound 0.0316 µM)
< 31.6 nM: IC50 (second compound 0.316 µM) | IC50 (second compound 1 µM) | IC50 (second compound 3.16 µM) | IC50 (second compound 10 µM)
5490 nM: IC50 (second compound 0.1 µM)
active: viability, T/C [13] 1.36% | viability, T/C [14] 1.57% | viability, T/C [15] 1.57% | viability, T/C [16] 2.69% | viability, T/C [17] 2.52% | viability, T/C [18] 0.54% | viability, T/C [19] 0.13% | viability, T/C [20] 0.17% | viability, T/C [21] 0.16% | viability, T/C [22] 0.11% | viability, T/C [23] 0.17% | viability, T/C [24] 0.07% | viability, T/C [25] 0.14% | viability, T/C [26] 0.16% | viability, T/C [27] 0.2% | viability, T/C [28] 0.19% | viability, T/C [29] 0.74% | viability, T/C [30] 0.26% | viability, T/C [31] 0.34% | viability, T/C [32] 0.17% | viability, T/C [33] 0.54% | viability, T/C [34] 0.22% | viability, T/C [35] 0.8% | viability, T/C [36] 2.02%

COC1C=CCC(C)C(C)S(=O)(=O)NC(=O)c2ccc3c(c2)N(CC2CCC21)CC1(CCCc2cc(Cl)ccc21)CO3 (stereo unspecified) + CN1CCN(c2cc(C(=O)Nc3cc4cc(-c5cnn(C)c5)ccc4cn3)ccn2)CC1
inactive: viability, T/C [1] 102% | viability, T/C [2] 97.9% | viability, T/C [3] 92.9% | viability, T/C [4] 92.8% | viability, T/C [5] 75.8% | viability, T/C [7] 64.4% | viability, T/C [8] 74.1% | viability, T/C [9] 52.7% | viability, T/C [10] 43.8% | viability, T/C [11] 27.5%
< 31.6 nM: IC50 (second compound 0.316 µM) | IC50 (second compound 1 µM) | IC50 (second compound 3.16 µM) | IC50 (second compound 10 µM)
621 nM: IC50 (second compound 0.1 µM)
active: viability, T/C [6] 8.72% | viability, T/C [12] 2.54% | viability, T/C [13] 1.25% | viability, T/C [14] 2.28% | viability, T/C [15] 2.09% | viability, T/C [16] 1.79% | viability, T/C [17] 1.28% | viability, T/C [18] 0.38% | viability, T/C [19] 0.11% | viability, T/C [20] 0.13% | viability, T/C [21] 2.8% | viability, T/C [22] 0.16% | viability, T/C [23] 0.14% | viability, T/C [24] 0.13% | viability, T/C [25] 0.17% | viability, T/C [26] 0.17% | viability, T/C [27] 0.99% | viability, T/C [28] 0.25% | viability, T/C [29] 0.33% | viability, T/C [30] 0.2% | viability, T/C [31] 0.21% | viability, T/C [32] 0.17% | viability, T/C [33] 0.9% | viability, T/C [34] 0.28% | viability, T/C [35] 0.67% | viability, T/C [36] 0.21%
4900 nM: IC50 (second compound 0.0316 µM)
